According to patent publication US10149855B2, “Gamma-secretase inhibition reduce APOC3 levels and plasma triglycerides” (THE TRUSTEES OF COLUMBIA UNIVERSITY IN THE CITY OF NEW YORK, priority 2014, dated 2018):

How the values were obtained:
Nicastrin = experiment: shRNA-mediated knockdown of Nicastrin, ApoC3 secretion; assay type: cell-based; conditions: mouse hepatocytes (FIG. 25)
[1] = test system: Lean mice, diet induced obese (DIO) mice, and leptin-deficient obese (ob/ob) mice; experiment: Weight, glucose and insulin of mice administered GSI (DBZ) or vehicle; assay type: in vivo
Procedure: Lean mice, diet induced obese (DIO) mice, and leptin-deficient obese (ob/ob) mice were administered either vehicle or GSI. [table]

DIO mice = experiment: Fasted/refed plasma glucose and glucose clearance in GSI-treated mice; assay type: in vivo; conditions: compared to vehicle (FIG. 3 Panel A)
[2] = test system: lean, diet-induced obese (DIO) and leptin-deficient obese (ob/ob) mice; experiment: Plasma/serum triglyceride levels in mice treated with GSI or vehicle; assay type: in vivo
Procedure: Mice were administered GSI or vehicle alone to determine the effect of GSI treatment on serum triglyceride levels. […] Plasma triglyceride lowering in genetic (leptin deficient ob/ob mice) or diet-induced mouse models of obesity was even more profound, with reductions approaching 75% of vehicle-treated animals. […] L-Ncst mice had similar reductions in plasma triglyceride as GSI-treated mice, proof that the mechanism of GSI-induced reduction in plasma triglyceride is through effects on liver. L-Ncst mice had approximately 40% reduced plasma triglyceride as compared to control mice when fed normal chow, but this rises to a staggering 70% reduction when mice were challenged with high-fat diet feeding. […] As such, gamma-secretase inhibition with GSIs or liver-specific gamma-secretase blockers would be predicted to have a greater, and perhaps synergistic, effect in reducing plasma triglyceride as compared to drugs that solely target ApoC3 expression.

mice [3] = conditions: mouse, in vivo
mice [4] = experiment: Triglyceride secretion after lipoprotein lipase inhibition with Poloxamer 407; assay type: in vivo; conditions: plasma TG after lipoprotein lipase inhibition with Poloxamer 407 (FIG. 7)
Text: DBZ-induced lower plasma TG in diet-induced obese (DIO) and leptin-deficient obese (ob/ob) mice is in the VLDL fraction. […] To differentiate these—we created a liver-specific gamma-secretase knockout mouse.

ApoC3 = experiment: Plasma ApoC3 levels in GSI-treated mice; assay type: in vivo
Text: Plasma triglyceride lowering in genetic (leptin deficient ob/ob mice) or diet-induced mouse models of obesity was even more profound, with reductions approaching 75% of vehicle-treated animals. […] L-Ncst mice had similar reductions in plasma triglyceride as GSI-treated mice, proof that the mechanism of GSI-induced reduction in plasma triglyceride is through effects on liver. L-Ncst mice had approximately 40% reduced plasma triglyceride as compared to control mice when fed normal chow, but this rises to a staggering 70% reduction when mice were challenged with high-fat diet feeding. […] As such, gamma-secretase inhibition with GSIs or liver-specific gamma-secretase blockers would be predicted to have a greater, and perhaps synergistic, effect in reducing plasma triglyceride as compared to drugs that solely target ApoC3 expression.

Compound | ApoC3 secretion (Nicastrin) | Glucose ([1]; DIO mice) [mg/dL] | Insulin ([1]; DIO mice) [ng/mL] | Glucose ([1]; lean mice) [mg/dL] | Insulin ([1]; lean mice) [ng/mL] | Glucose ([1]; ob/ob mice) [mg/dL] | Insulin ([1]; ob/ob mice) [ng/mL] | fasted and refed glucose (DIO mice) | triglycerides in VLDL, LDL and HDL fractions ([2]; DIO and ob/ob mice (FIG. 5)) | plasma triglyceride ([2]; lean mice) | plasma triglyceride reduction ([2]; ob/ob or diet-induced obese mice, relative to vehicle-treated animals) [%] | plasma triglyceride (TG) ([2]; obese mice (DIO and ob/ob), compared to vehicle (FIG. 4)) | gastrointestinal (GI) toxicity (mice [3]) | TG secretion (mice [4]) | plasma ApoC3 levels (ApoC3)
SEQ ID NO. 59: shRNA for knockdown of Nicastrin, sequence CTCCTTCCACAATCGGTATTA (listed as DNA, chemistry not fully specified; listed as Rattus norvegicus) | reduces ApoC3 secretion |  |  |  |  |  |  |  |  |  |  |  |  |  | 
C[C@H](NC(=O)Cc1cc(F)cc(F)c1)C(=O)N[C@@H]1C(=O)N(C)c2ccccc2-c2ccccc21 [GSI, N-[(1S)-2-[[(7S)-6,7-dihydro-5-methyl-6-oxo-5H-dibenz[b,d]azepin-7-yl]amino]-1-methyl-2-oxoethyl]-3,5-difluoro-benzeneacetamide] |  | 72 ± 5 | 1.33 ± 0.32 | 64 ± 2 | 0.49 ± 0.04 | 98 ± 6 | 15.6 ± 3.25 | reduced both fasted as well as refed (or exogenous) glucose | lowered triglycerides in the VLDL fraction | reduces plasma triglyceride in a dose-dependent manner | ~75 | lower plasma triglyceride | not associated with apparent gastrointestinal (GI) toxicity | does not affect TG secretion | markedly and proportionately reduced
